Holding throughout (assay type): in vivo
Data set [1] has as its system Galium aparine. Kind of data set: Herbicidal action (greenhouse trials), post-emergence, visual scoring. The settings on record: Example 1; application rate g of ai/ha: amidosulfuron 15, florasulam 4, A + B 15 + 4; scored approx. 4-6 weeks after application; 100% = all plants dead. As to the method: (§1) Herbicidal Action (Greenhouse Trials)
(§2) The seeds or rhizome pieces of typical harmful plants were placed into sandy loam soil in round pots, size 13, covered with soil and grown in a greenhouse under good growth conditions. After the harmful plants had emerged, they were treated, as a rule at the 2- to 3-leaf stage, with various dosages of the compositions according to the invention at a water application rate of 100 to 400 l/ha (converted),
(§3) After the treatment (approx. 4-6 weeks after application), the herbidical activity of the active compounds or active compound mixtures was scored visually by comparing the treated plots with the untreated controls. Damage and development of all above-ground parts of the plants was recorded. Scoring was done on a percentage scale (100% action=all plants dead; 50% action=50% of the plants and green plant parts dead; 0% action=no discernible action),
(§4) The results are listed in the tables below, where the activity measured for the independent use of the active compounds (A) and (B) is stated in brackets, […]

Data set [2] relates to Veronica hederifolia. The description is as above. To be noted: Example 2; application rate g of al/ha: amidosulfuron 8, cinidon-ethyl 13, A + B 8 + 13; scored approx. 4-6 weeks after application; 100% = all plants dead. The protocol: as §1, §2, §3, §4
The test system of data set [3] is Wheat. Description: Crop damage in greenhouse trials, visual scoring. The settings on record: scored approx. 4-6 weeks after application. As to the method:
as §1, §2, §3, §4

Setting [4] is: Example 1, application rate g of ai/ha: amidosulfuron 15, florasulam 4, A + B 15 + 4.
The mark [5] stands for this setting: Example 2, application rate g of al/ha: amidosulfuron 8, cinidon-ethyl 13, A + B 8 + 13.

With `COc1cc(OC)nc(NC(=O)NS(=O)(=O)N(C)S(C)(=O)=O)n1` [Amidosulfuron, 1-(4,6-dimethoxypyrimidin-2-yl)-3-mesyl-(methyl)-sulfamoylurea], in data set [1], the “Galium aparine % activity” value came to 35%. Further, the “Veronica hederifolia % activity” value in data set [2] amounted to 0%. Also, the results for the Wheat % damage in data set [3] (setting [4]) and in data set [3] (setting [5]) were 0% and 0, respectively.

For `CCOC(=O)/C(Cl)=C/c1cc(N2C(=O)C3=C(CCCC3)C2=O)ccc1Cl` [Cinidon-ethyl, ethyl (Z)-2-chloro-3-[2-chloro-5-(1,2-cyclohex-1-enedicarboximido)phenyl]acrylate], the “Veronica hederifolia % activity” value in data set [2] came to 15%. Also, the Wheat % damage in data set [3] (setting [5]) is 0.

In the case of `COc1ncc(F)c2nc(S(=O)(=O)Nc3c(F)cccc3F)nn12` [Florasulam, 2′,6′,8′-trifluoro-5-methoxy[1,2,4]triazolo[1,5-c]pyrimidine-2-sulfanilide], the “Galium aparine % activity” value in data set [1] was 45%. In addition, the Wheat % damage in data set [3] (setting [4]) turned out to be 1%.
